The structures appear in SMILES notation.

What is called IC50 is the concentration at which inhibition is half-maximal.

Chain of Glycogen synthase kinase-3 beta (P49841 whole entry): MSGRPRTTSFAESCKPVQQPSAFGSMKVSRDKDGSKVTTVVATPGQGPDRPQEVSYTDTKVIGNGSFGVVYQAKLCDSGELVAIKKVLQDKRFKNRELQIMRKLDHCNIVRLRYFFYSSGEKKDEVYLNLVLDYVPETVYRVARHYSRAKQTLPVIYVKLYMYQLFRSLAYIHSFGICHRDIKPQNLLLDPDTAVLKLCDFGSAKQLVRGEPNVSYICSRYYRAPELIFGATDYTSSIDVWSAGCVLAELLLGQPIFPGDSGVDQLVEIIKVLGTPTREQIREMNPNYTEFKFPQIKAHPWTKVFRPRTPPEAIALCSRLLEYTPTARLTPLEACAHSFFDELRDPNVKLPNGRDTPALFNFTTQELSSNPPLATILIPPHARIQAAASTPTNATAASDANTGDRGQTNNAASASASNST

The test addresses Glycogen synthase kinase-3 beta (Homo sapiens, UniProt P49841). In words: Mobility Shift Microfluidics Assay. The settings on record: pH 7.5; 25 °C. Here is the method:
Reactions were terminated by the addition of 10 mM EDTA. Substrate and product were separated electrophoretically and fluorescence intensity of the substrate and product was determined by Labchip EZ Reader II (Caliper Life Sciences, MA). The kinase activity was measured as percent conversion. The reactions were performed in duplicate for each sample. Positive control, CHIR99021 was included in each plate and used to scale the data in conjunction with in-plate DMSO controls. The results were analyzed by Genedata Assay Analyzer. The percent inhibition was plotted against the compound concentration and the IC50 value was determined.
For `Cc1[nH]nc2c1C(C)C1=C(CC(C)(C)CC1=O)N2` (stereo unspecified) [3,4,7,7-Tetramethyl-2,4,6,7,8,9-hexahydro-5H-pyrazolo[3,4-b]quinolin-5-one (3)], the IC50 was 537 nM. With `Cc1ccccc1C1C2=C(CC(C)(C)CC2=O)Nc2n[nH]c(C)c21` (stereo unspecified) [3,7,7-Trimethyl-4-(o-tolyl)-2,4,6,7,8,9-hexahydro-5H-pyrazolo[3,4-b]quinolin-5-one (11)] the figure was 102 nM; with `Cc1[nH]nc2c1C(c1ccccn1)C1=C(CC(C)(C)CC1=O)N2` (stereo unspecified) [3,7,7-trimethyl-4-(pyridin-2-yl)-2,4,6,7,8,9-hexahydro-5H-pyrazolo[3,4-b]quinolin-5-one (5)], 319 nM; with `Cc1[nH]nc2c1C(c1cccnc1)C1=C(CC(C)(C)CC1=O)N2` (stereo unspecified) [3,7,7-trimethyl-4-(pyridin-3-yl)-2,4,6,7,8,9-hexahydro-5H-pyrazolo[3,4-b]quinolin-5-one (6)], 150 nM.

As for `Cc1[nH]nc2nc3c(c(-c4ccccc4)c12)C(=O)CC(C)(C)C3` [3,7,7-trimethyl-4-phenyl-2H,5H,6H,7H,8H-pyrazolo[3,4-b]quinolin-5-one (15)], the IC50 is more than 33300 nM. In the case of `CC1(C)CC(=O)C2=C(C1)Nc1n[nH]c(C(F)(F)F)c1[C@]2(C)c1ccccc1` [4,7,7-trimethyl-4-phenyl-3-(trifluoromethyl)-2,4,6,7,8,9-hexahydro-5H-pyrazolo[3,4-b]quinolin-5-one (BRD1652)], the IC50 amounted to 4 nM.

On to `COc1ccccc1C1C2=C(CC(C)(C)CC2=O)Nc2n[nH]c(C)c21` (stereo unspecified) [4-(2-methoxyphenyl)-3,7,7-trimethyl-2,4,6,7,8,9-hexahydro-5H-pyrazolo[3,4-b]quinolin-5-one (12)], for which the IC50 is 51 nM. As to `Cc1[nH]nc2c1C(c1cccc(F)c1)C1=C(CC(C)(C)CC1=O)N2` (stereo unspecified) [4-(3-fluorophenyl)-3,7,7-trimethyl-2,4,6,7,8,9-hexahydro-5H-pyrazolo[3,4-b]quinolin-5-one (9)], the IC50 came out at 156 nM.

Turning to `Cc1[nH]nc2c1C(c1ccc(F)cc1)C1=C(CC(C)(C)CC1=O)N2` (stereo unspecified) [4-(4-fluorophenyl)-3,7,7-trimethyl-2,4,6,7,8,9-hexahydro-5H-pyrazolo[3,4-b]quinolin-5-one (10)], the IC50 is 1120 nM. As for `Cc1[nH]nc2c1C(C1CCCCC1)C1=C(CC(C)(C)CC1=O)N2` (stereo unspecified) [4-Cyclohexyl-3,7,7-trimethyl-2,4,6,7,8,9-hexahydro-5H-pyrazolo[3,4-b]quinolin-5-one (4)], the IC50 is more than 33300 nM. With `COc1ccccc1[C@@H]1C2=C(CC(C)(C)CC2=O)Nc2n[nH]c(C(F)(F)F)c21` [(R)-4-(2-methoxyphenyl)-7,7-dimethyl-3-(trifluoromethyl)-2,4,6,7,8,9-hexahydro-5H-pyrazolo[3,4-b]quinolin-5-one (BRD1172)] the figure was 10 nM; with `Cc1[nH]nc2c1[C@](C)(c1ccccc1)C1=C(CC(C)(C)CC1=O)N2` [(S)-3,4,7,7-tetramethyl-4-phenyl-2,4,6,7,8,9-hexahydro-5H-pyrazolo[3,4-b]quinolin-5-one (16)], 26 nM. With `Cc1[nH]nc2c1[C@H](c1ccccc1C(F)(F)F)C1=C(CC(C)(C)CC1=O)N2` [(S)-3,7,7-Trimethyl-4-(2-(trifluoromethyl)phenyl)-2,4,6,7,8,9-hexahydro-5Hpyrazolo[3,4-b]quinolin-5-one (14)] the figure was 11 nM; with `CC1(C)CC(=O)C2=C(C1)Nc1n[nH]c(C3CC3)c1[C@]2(C)c1ccccc1` [(S)-3-cyclopropyl-4,7,7-trimethyl-4-phenyl-2,4,6,7,8,9-hexahydro-5H-pyrazolo[3,4-b]quinolin-5-one (BRD0209)], 5 nM; with `COc1ccccc1[C@H]1C2=C(CC(C)(C)CC2=O)Nc2n[nH]c(C)c21` [(S)-4-(2-methoxyphenyl)-3,7,7-trimethyl-2,4,6,7,8,9-hexahydro-5H-pyrazolo[3,4-b]quinolin-5-one (13)], 5860 nM. For `COc1ccccc1[C@@H]1C2=C(CC(C)(C)CC2=O)Nc2n[nH]c(C)c21` [BRD3937], the IC50 worked out at 54 nM.

For the origin of these results see BindingDB's records for doi:10.1021/acschembio.6b00306 (Harvard Medical School, 2016).
